Marks after values point to notes of the source that are not given here. Starred links: 1 amine or outer side, 2 acyl side, 3 side chain; linkers in the order of their positions; H or OH if unused. Positions of bridges follow the written chain, without caps; N, C: chain ends. Non-standard residues stand in square brackets, D forms with d. Residues, ends and D or L forms follow the SMILES beside them. *: point of attachment. X1 = CC[C@H](C)[C@@H](N[*:1])[C@@H](O)CC(=O)O[C@H](C(=O)[C@H](C)C(=O)[*:2])C(C)C; NMeY = CN[C@@H](Cc1ccc(O)cc1)C(=O)O; dNMeL = CN[C@H](CC(C)C)C(=O)O; Pyruvoyl = CC(=O)C(=O)*
Key:
prostate tumour = settings: 1.25 mg/kg; cited from earlier work
NP9 peritoneal implants = assay: NP9 peritoneal metastases after orthotopic implantation; assay type: in vivo, Nu/Nu Swiss mice
Text: (§1) Aplidine is a new cyclic depsipeptide with anticancer activity in vitro and in vivo in different tumour types, but it has not been tested in pancreatic carcinoma. Nevertheless, this pathology has a poor prognosis because of difficult early diagnosis, aggressiveness and lack of effective systemic therapies. Most patients die of metastases present at diagnosis. We compared the antitumour effect of aplidine against 2 human pancreatic carcinomas, NP9 and NP18, using orthotopic (ORP) and subcutaneous (SC) tumour implantation models. […] METHODS: Groups of ten male Nu/Nu Swiss mice (4 wk old) were treated with vehicle or aplidine. To evaluate primary tumour response, ip aplidine was given, starting 2 weeks (wk) after implantation, at 0.8 mg/kg q4d for 4 wk (NP9) or at 0.8 mg/kg q4d for 6 wk, ceasing treatment the 4th and 5th wk (NP18). To evaluate the response of NP9 metastasis aplidine regime was 0.8 mg/kg q4d per 3 doses, starting 4 weeks after implantation. We measured final tumour weight, macroscopic viability (viable cortex/total tumour weight), microscopic necrosis, apoptotic induction and signal transduction. […] This effect was due to apoptotic induction leading to a reduced number of viable cells in both tumours. Apoptotic induction on NP18 was associated with PARP cleavage and reduced AKT activation, only in ORT-treated tumours. aplidine induced a decrease in cyclins B1 and D1 and FAK expression only in ORT NP9-treated tumours. […] CONCLUSIONS: The use of an ORT implantation model permitted the observation of the antitumour effect of aplidine on primary tumours and metastases of human pancreatic carcinomas. aplidine altered apoptotic and proliferative pathways, which could explain its antitumour effect.
(§2) We used two human pancreatic carcinomas (NP18 and NP9) perpetuated as orthotopic xenografts in nude mice. NP9 produce an extensive peritoneal dissemination 4-5 weeks after implantation (metastatic). We implanted these tumours in four week-old male Nu/Nu Swiss mice (Charles River), housed in autoclaved cages and provided y-ray sterilized bedding and food. They were anesthetized with 2,2,2-tribromoethanol (Sigma-Aldrich) and 10 mg fragments of each tumour from previous passages were implanted orthotopically (ORT, at the pancreas). Xenografted animals were randomly distributed in control (n=10) and experimental (n=10) groups just before treatment. We excluded animals bearing non palpable tumours after ORT implantation, or with tumour volumes lower than 0.13 cm^3 (0.5 cm in diameter). Treatment schedule depended on tumour growth rate. In the fast growing NP9 tumour, two schedules of treatment were used. In one, treatment started two weeks after tumour implantation, before peritoneal dissemination had occurred. Each animal in the experimental group received ip administrations of aplidine at a dose of 0.8 mg/Kg q4d per four weeks. In the other schedule, treatment started four weeks after tumour implantation, once peritoneal dissemination had occurred, with a regime of aplidine of 0.8 mg/Kg q4d per three doses. The existence of macroscopically visible implants was confirmed one day before the treatment begun, by the sacrifice of one extra animal. In the NP18 tumour, treatment started 4 weeks after tumour implantation and the schedule of aplidine was 0.8 mg/Kg q4d ip for 4 weeks, ceasing treatment for two weeks, and continuing with 0.8 mg/Kg q4d ip for two additional weeks. The animals in the corresponding control groups received i.p. administrations of vehicle following the same schedule. After implantation, and during treatment, mice were inspected twice a week and weighted weekly to monitor for compound toxicity.
(§3) At the end of treatment, animals were euthanized and dissemination recorded. Primary tumours were excised and weighted in all groups. Tumor aliquots were frozen down in liquid nitrogen or fixed in formaline. We counted the number of peritoneal implants in each animal and took samples for histological and molecular analysis. […]

human cancer xenografts = settings: cited from earlier work
gastric tumours = settings: 1.25 mg/kg; cited from earlier work
ornithine decarboxylase = molecular target: T1, ornithine decarboxylase (Homo sapiens, UniProt P11926); settings: all three cell lines; cited from earlier work
T1 construct: endogenous in cells; host or cells: CT-1, CT-2 and HT-29 colon cell lines
T1 sequence (P11926 1-461): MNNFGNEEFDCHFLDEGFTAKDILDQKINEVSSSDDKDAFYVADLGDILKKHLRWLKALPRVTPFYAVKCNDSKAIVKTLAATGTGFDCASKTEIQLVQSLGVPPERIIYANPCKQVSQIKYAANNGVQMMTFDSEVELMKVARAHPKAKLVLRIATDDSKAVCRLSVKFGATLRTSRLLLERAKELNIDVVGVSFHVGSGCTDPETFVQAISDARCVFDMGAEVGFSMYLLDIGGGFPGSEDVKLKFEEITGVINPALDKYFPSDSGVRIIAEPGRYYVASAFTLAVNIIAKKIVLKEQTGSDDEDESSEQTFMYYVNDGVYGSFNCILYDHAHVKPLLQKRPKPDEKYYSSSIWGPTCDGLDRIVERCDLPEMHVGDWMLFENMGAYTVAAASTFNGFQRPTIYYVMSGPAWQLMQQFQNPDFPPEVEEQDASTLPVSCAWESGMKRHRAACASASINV

[1] = test system: NP18 human pancreatic carcinoma; assay: NP18 human pancreatic carcinoma xenograft, primary tumour; assay type: in vivo, Nu/Nu Swiss mice; settings: for Total tumour weight (g): 0.8 mg/kg q4d ip
Text: as §1, §2, §3

[2] = test system: CT-1, CT-2 and HT-29 cell lines; settings: CT-1, CT-2, HT-29; cited from earlier work
MDA-MB231 = settings: aplidine 50 nmol/L; cited from earlier work
[3] = test system: Non-small cell lung cancer, breast cancer and melanoma cell lines; settings: continuous exposure; cited from earlier work
[4] = Stability of aplidine solution and lyophilised dosage form; assay type: physicochemical
Method: In a currently preferred embodiment freeze-drying was performed from a […] solution of aplidine in 40% (v/v) tert-butanol in Water for Injection (Wfl) containing 25 mg/mL D-mannitol as bulking agent. […] Both reconstituted product and dilutions (up to 1:100 v/v) of the reconstituted product with normal saline appeared to be stable for at least 24 hours after preparation.

[5] = test system: NP9 human pancreatic carcinoma; assay: NP9 human pancreatic carcinoma xenograft, primary tumour; assay type: in vivo, Nu/Nu Swiss mice; settings: for Solid tumour weight (g) / Total tumour weight (g): 0.8 mg/kg q4d ip
Text: as §1, §2, §3

MCF-7 = settings: aplidine 50 nmol/L; cited from earlier work
[6] = test system: P388 leukaemia and B 16 melanoma; settings: mouse, in vivo; cited from earlier work
pancreatic tumour = settings: 4 patients with pancreatic tumour, phase I; cited from earlier work
lewis lung carcinomas = settings: cited from earlier work

CC[C@H](C)[C@H]1NC(=O)[C@@H](NC(=O)[C@@H](CC(C)C)N(C)C(=O)[C@@H]2CCCN2C(=O)C(C)=O)[C@@H](C)OC(=O)[C@H](Cc2ccc(OC)cc2)N(C)C(=O)[C@@H]2CCCN2C(=O)[C@H](CC(C)C)NC(=O)[C@@H](C)C(=O)[C@H](C(C)C)OC(=O)C[C@@H]1O [aplidine] (Pyruvoyl-P[dNMeL]T[X1]LP[NMeY](Me); ester 3-C)
T/C (prostate tumour): 25%
apoptotic nuclei per treated implant (Hoescht) (NP9 peritoneal implants; established metastases): 3-6
Caspase-3 activation and PARP cleavage in metastases (NP9 peritoneal implants; mouse, in vivo): No activation of Caspase-3 nor PARP cleavage
necrosis in peritoneal implants (H&E) (NP9 peritoneal implants; mouse, in vivo): did not contain necrotic areas
peritoneal implants (NP9 peritoneal implants; treatment initiated before dissemination, 0.8 mg/Kg q4d four weeks): no peritoneal implants were observed in any animal
diameter of peritoneal implants (NP9 peritoneal implants; treatment started once metastases macroscopically evident): less than 1 mm
number of peritoneal implants per animal (NP9 peritoneal implants; treatment started once metastases macroscopically evident, 0.8 mg/Kg q4d three doses): 7-20
ERK activation in metastases (NP9 peritoneal implants; vs control metastases): lower ERK activation
treated/control (T/C) tumour ratio (human cancer xenografts; 2.1 mg/kg): 9%
maximum tolerated dose (human cancer xenografts; mice bearing human cancer xenografts): 2.1 mg/kg
T/C (gastric tumours): 14%
ornithine decarboxylase activity (ornithine decarboxylase): decreased ornithine decarboxylase activity
size or macroscopic appearance of primary tumour ([1]; NP18): did not significantly change
AKT activation (Western blot) ([1]; NP18, ORT): Decrease AKT activation
PARP cleavage (Western blot) ([1]; NP18, ORT): PARP cleavage
caspases 3, 7 and 8 (Western blot) ([1]; NP18, ORT): activation of caspases 3, 7 and 8
microscopic necrosis (H&E) ([1]; NP18, ORT treated vs ORT control): significantly higher level of necrosis
Total tumour weight (g) ([1]; NP18, ORT): 9.34 ± 1.3^d g
apoptosis (Hoescht nuclear staining) ([1]; NP18, ORT, viable tissue): significantly increased apoptosis
AKT, caspases 3, 7, 8 and PARP regulation (Western blot) ([1]; NP18, SC): did not alter the regulation of any of these proteins
Total tumour weight (g) ([1]; NP18, SC): 15.5 ± 5.3^c g
ERK activation (Western blot) ([1]; NP18, any site): No differences in ERK activation
difference in total or solid tumour weight vs control ([1]; NP18, any site): no significant differences
cytotoxic activity [2]: dose-dependent cytotoxic activity
inhibition of growth (MDA-MB231): 17%
concentration to which cell lines were sensitive [3]: >= 0.001 micromol/L
degradation under stress testing [4]: substantial degradation
active forms of caspases 3, 7 or 8 (Western blot) ([5]; NP9): No active forms of caspases 3, 7 or 8 were detected
FAK expression (Western blot) ([5]; NP9, ORT): downregulation of FAK
cyclin B1 and cyclin D1 expression (Western blot) ([5]; NP9, ORT): decreased expression of cyclin B1 and cyclin D1
macroscopic appearance, invasion by primary tumour ([5]; NP9, ORT): did not invade other organs of the peritoneum
foci of non-viable/necrotic cells, share of each tumour ([5]; NP9, ORT treated): 75-100%
Solid tumour weight (g) ([5]; NP9, ORT): 3.04 ± 1.04^f g
Total tumour weight (g) ([5]; NP9, ORT): 3.72 ± 1.09^b g
Ki67 ([5]; NP9, ORT, viable tissue): downregulation
apoptosis (Hoescht nuclear staining) ([5]; NP9, ORT, viable tissue): significantly increased apoptosis
cyclin B1 and cyclin D1 levels (Western blot) ([5]; NP9, SC): no differences in cyclin B1 or cyclin D1 levels
Solid tumour weight (g) ([5]; NP9, SC): 0.87 ± 0.44^e g
Total tumour weight (g) ([5]; NP9, SC): 1.56 ± 0.8^a g
difference in total or solid tumour weight vs control ([5]; NP9, any site): no significant differences
ERK activation (Western blot) ([5]; NP9, both tumour sites): ERK activation was unaltered
inhibition of growth (MCF-7): 47%
activity against implanted tumours [6]: active
optimal dose [6]: 160 micro/kg
tumour response of patients (pancreatic tumour): did not respond
activity in SC implanted lewis lung carcinomas (lewis lung carcinomas): active

CC[C@H](C)[C@H]1NC(=O)[C@@H](NC(=O)[C@@H](CC(C)C)N(C)C(=O)[C@@H]2CCCN2C(=O)C(C)O)[C@@H](C)OC(=O)[C@H](Cc2ccc(OC)cc2)N(C)C(=O)[C@@H]2CCCN2C(=O)[C@H](CC(C)C)NC(=O)[C@@H](C)C(=O)[C@H](C(C)C)OC(=O)C[C@@H]1O (some centres unmarked) [didemnin B, reference compound]
activity in SC implanted lewis lung carcinomas (lewis lung carcinomas): Unlike didemnin B, aplidine was active

Reference: patent publication US20100041594A1, “Use of Aplidine for the Treatment of Pancreatic Cancer” (Pharma Mar, S.A., priority 2001, published 2010)
